Twelve compounds from patent US20240150360A1 (THE REGENTS OF THE UNIVERSITY OF MICHIGAN, priority 2021, published 2024) can be followed below.

pIC50: −log10 of the molar value. Read-outs that look alike come from different tables or passages of the source.

In experiment [1] the target is T1, P300 (Homo sapiens, UniProt Q09472).
T1 construct: endogenous in cells; host or cells: 22Rv1 (ATCC CRL-2505) human prostate cancer cells
Description: P300 degradation in 22Rv1 cells (5 h). Type of experiment: cell-based. The conditions noted are these: 22Rv1 cells, 5 h; for Dmax: read-out: P300 Degradation (22Rv1, 5 h) DCmax. An excerpt:
(§1) Biological Assays. […] Cells with 3-8 passages after purchase were used in experiments.

For experiment [2], the system named is HL60. Description: Cell growth inhibition in HL60. It counts as cell-based. Particulars: read-out: Cell Growth Inhibition (IC50) HL60.
The test system of experiment [3] is 22Rv1 cells. The experiment can be described thus: Cell growth inhibition assay (CellTiter-Glo) in 22Rv1. Type of experiment: cell-based, human. The conditions noted are these: 22Rv1 cells, 96 h incubation, read-out: Cell Growth Inhibition (IC50) 22Rv1. The procedure, abridged: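 22Rv1 prostate cancer cells (passages 3-8, DMEM with 10% FBS) were seeded at 4000 cells/well with compound, 3-fold dilutions from 10 μM final. After 96 h at 37° C and 5% CO2, growth was read by CellTiter-Glo 2.0 luminescence.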

Experiment [4] deals with T2, CBP (Homo sapiens, UniProt Q92793).
T2 construct: endogenous in cells; host or cells: 22Rv1 (ATCC CRL-2505) human prostate cancer cells
T2 sequence (Q92793 whole entry): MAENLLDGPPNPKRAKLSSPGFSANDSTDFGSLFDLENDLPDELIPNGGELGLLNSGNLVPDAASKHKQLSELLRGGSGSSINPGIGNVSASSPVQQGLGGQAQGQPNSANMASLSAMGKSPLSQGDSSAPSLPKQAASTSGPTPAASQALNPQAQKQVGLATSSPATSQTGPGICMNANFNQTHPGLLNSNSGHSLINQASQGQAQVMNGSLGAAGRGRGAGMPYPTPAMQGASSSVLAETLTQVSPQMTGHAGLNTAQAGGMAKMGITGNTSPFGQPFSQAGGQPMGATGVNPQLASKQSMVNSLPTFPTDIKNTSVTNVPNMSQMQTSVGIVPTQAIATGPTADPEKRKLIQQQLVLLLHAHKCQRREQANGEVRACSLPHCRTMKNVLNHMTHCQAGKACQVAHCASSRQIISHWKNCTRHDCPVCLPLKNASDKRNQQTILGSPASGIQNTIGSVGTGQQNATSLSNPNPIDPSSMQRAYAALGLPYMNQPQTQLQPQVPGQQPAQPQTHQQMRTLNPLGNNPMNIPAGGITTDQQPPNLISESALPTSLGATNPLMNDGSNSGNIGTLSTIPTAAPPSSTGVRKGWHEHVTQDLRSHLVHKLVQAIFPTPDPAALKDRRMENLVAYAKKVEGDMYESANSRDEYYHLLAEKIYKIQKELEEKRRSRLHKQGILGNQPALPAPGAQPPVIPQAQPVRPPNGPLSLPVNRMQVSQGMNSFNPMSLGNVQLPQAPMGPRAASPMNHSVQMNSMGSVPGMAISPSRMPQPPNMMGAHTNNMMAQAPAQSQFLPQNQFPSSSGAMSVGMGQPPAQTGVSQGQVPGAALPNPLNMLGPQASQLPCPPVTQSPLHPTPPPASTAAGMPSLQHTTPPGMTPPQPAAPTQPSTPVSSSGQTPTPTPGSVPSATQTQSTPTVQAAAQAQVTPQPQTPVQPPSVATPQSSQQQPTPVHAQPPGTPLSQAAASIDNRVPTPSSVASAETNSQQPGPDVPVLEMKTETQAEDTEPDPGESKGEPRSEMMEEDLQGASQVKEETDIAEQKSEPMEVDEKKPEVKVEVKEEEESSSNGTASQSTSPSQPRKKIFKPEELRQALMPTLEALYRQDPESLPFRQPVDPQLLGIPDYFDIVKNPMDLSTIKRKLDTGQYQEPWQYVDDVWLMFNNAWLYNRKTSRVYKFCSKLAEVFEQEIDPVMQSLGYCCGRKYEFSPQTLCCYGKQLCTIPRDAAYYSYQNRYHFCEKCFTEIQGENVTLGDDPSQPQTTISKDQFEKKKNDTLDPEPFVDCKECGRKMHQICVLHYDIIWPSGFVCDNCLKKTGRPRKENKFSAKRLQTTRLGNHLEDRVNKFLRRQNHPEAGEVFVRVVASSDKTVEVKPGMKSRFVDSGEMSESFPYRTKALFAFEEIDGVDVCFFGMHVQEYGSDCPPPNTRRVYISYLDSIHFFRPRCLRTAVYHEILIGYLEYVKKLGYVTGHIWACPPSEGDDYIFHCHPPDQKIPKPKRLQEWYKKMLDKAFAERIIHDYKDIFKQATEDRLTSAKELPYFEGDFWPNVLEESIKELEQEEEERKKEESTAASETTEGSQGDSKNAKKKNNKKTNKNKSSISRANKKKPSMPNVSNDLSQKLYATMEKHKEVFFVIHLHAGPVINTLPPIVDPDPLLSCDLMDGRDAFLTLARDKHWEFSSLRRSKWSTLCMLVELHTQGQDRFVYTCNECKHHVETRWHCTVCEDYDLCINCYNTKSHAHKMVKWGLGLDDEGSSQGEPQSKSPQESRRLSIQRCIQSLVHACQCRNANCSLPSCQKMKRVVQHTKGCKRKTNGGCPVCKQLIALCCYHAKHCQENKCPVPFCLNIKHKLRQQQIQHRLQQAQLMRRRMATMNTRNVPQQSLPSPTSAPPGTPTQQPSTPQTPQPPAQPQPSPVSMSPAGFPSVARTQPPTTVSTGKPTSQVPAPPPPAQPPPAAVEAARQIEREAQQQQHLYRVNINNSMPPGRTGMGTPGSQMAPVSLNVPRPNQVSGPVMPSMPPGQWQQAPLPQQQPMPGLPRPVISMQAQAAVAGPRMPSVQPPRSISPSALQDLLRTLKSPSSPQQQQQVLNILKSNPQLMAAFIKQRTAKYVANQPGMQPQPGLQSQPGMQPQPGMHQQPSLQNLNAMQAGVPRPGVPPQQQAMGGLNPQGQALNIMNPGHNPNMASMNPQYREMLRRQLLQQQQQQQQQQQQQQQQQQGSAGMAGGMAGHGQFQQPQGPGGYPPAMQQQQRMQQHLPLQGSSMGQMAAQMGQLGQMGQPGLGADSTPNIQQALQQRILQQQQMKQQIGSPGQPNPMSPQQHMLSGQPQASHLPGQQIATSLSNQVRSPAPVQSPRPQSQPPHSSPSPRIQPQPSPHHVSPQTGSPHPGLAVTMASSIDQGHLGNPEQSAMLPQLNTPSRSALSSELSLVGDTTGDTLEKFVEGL
The experiment can be described thus: CBP degradation in 22Rv1 cells (5 h). It counts as cell-based. The conditions noted are these: 22Rv1 cells, 5 h; for Dmax: 22Rv1, 5 h, read-out: CBP Degradation (22Rv1, 5 h) DCmax.
Source text: as §1

Where [5] appears, read: Homo sapiens, HL-60, HL60 cells.

T1 sequence (Q09472 whole entry): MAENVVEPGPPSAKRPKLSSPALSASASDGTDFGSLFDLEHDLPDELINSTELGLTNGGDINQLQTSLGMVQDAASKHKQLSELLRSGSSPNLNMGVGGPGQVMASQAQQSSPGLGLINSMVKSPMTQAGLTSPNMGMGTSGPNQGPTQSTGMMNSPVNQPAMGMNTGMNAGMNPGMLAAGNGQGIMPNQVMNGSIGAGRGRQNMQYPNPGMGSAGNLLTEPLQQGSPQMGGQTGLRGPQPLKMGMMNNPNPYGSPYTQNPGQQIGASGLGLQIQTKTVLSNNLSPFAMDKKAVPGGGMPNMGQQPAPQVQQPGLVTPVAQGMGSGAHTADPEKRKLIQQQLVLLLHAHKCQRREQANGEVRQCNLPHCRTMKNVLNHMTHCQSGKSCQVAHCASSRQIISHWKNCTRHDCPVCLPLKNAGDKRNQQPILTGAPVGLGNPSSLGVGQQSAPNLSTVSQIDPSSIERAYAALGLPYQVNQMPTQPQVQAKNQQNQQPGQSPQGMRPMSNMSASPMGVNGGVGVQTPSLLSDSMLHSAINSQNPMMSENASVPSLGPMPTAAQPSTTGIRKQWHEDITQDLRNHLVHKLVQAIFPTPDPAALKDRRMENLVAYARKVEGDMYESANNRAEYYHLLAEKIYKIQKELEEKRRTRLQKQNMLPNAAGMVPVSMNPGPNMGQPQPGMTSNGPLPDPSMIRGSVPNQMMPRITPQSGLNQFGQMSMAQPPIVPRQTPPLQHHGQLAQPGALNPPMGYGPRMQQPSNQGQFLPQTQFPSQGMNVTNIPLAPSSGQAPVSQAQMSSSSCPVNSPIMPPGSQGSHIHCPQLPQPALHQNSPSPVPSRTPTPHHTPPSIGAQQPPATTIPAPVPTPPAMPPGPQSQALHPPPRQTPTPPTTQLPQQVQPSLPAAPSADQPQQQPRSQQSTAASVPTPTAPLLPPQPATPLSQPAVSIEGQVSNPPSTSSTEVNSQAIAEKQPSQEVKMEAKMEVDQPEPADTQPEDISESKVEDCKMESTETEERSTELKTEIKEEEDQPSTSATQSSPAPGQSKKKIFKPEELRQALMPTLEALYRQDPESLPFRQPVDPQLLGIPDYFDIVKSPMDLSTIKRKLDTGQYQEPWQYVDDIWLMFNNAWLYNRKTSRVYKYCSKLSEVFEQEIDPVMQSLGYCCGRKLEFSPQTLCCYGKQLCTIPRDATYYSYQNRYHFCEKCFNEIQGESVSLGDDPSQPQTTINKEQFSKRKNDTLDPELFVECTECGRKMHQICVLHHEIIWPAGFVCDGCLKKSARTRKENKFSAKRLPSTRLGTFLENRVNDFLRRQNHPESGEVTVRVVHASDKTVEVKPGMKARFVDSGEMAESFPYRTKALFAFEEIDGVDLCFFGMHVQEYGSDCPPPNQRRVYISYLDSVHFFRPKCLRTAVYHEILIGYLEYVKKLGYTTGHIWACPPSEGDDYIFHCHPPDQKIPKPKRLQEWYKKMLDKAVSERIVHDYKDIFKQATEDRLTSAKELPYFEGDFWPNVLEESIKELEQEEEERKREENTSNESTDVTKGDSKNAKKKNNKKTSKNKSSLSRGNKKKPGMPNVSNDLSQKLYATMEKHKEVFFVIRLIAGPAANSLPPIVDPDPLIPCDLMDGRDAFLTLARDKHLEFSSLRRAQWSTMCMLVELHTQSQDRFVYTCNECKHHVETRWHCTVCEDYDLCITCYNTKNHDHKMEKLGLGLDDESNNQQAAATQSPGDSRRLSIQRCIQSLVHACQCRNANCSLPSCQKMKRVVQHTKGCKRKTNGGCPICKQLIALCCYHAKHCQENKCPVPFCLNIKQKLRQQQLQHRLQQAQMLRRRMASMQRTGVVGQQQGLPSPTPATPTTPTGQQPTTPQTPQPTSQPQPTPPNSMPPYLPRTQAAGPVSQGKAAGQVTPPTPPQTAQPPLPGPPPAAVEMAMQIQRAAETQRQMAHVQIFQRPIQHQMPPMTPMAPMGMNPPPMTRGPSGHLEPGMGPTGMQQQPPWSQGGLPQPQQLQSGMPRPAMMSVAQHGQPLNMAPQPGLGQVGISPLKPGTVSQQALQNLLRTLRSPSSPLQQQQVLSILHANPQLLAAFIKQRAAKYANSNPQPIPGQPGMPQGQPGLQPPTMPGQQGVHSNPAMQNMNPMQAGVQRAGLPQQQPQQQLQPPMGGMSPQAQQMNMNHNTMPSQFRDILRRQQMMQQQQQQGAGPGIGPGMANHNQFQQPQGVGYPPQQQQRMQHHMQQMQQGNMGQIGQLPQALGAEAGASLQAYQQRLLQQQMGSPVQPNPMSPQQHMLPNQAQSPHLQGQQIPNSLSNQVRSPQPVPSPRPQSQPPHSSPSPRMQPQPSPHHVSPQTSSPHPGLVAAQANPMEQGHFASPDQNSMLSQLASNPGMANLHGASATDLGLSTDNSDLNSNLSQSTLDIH

Turning to `CC(=O)N1CCc2c(c(-c3cccc4ccccc34)nn2C2CCN(C(=O)CN3CCc4cc5c(cc4C3)C(=O)N(C3CCC(=O)NC3=O)C5=O)CC2)C1` (centres unmarked) [CP-076, 6-(2-(4-(5-acetyl-3-(naphthalen-1-yl)-4,5,6,7-tetrahydro-1H-pyrazolo[4,3-c]pyridin-1-yl)piperidin-1-yl)-2-oxoethyl)-2-(2,6-dioxopiperidin-3-yl)-5,6,7,8-tetrahydro-1H-pyrrolo[3,4-g]isoquinoline-1,3(2H)-dione], the DC50 in experiment [1] and in experiment [4] was below 10 nM throughout. Moreover, the Dmax in experiment [1] is above 70%; in experiment [4], above 90%. The pIC50 was above 6.00 in experiment [2] (setting [5]) and below 5.00 in experiment [3] (Homo sapiens, 22Rv1, 96 h).

As to `Cc1noc(C)c1-c1ccc2c(c1)nc([C@@H]1CCCC(=O)N1c1ccc(F)c(F)c1)n2C1CCN(C(=O)CCCN2Cc3cc4c(cc3C2)C(=O)N(C2CCC(=O)NC2=O)C4=O)CC1` (stereo partly drawn) [CP-066, 6-(4-(4-(2-((S)-1-(3,4-difluorophenyl)-6-oxopiperidin-2-yl)-5-(3,5-dimethylisoxazol-4-yl)-1H-benzo[d]imidazol-1-yl)piperidin-1-yl)-4-oxobutyl)-2-(2,6-dioxopiperidin-3-yl)-6,7-dihydropyrrolo[3,4-f]isoindole-1,3(2H,5H)-dione], the DC50 in experiment [1] and in experiment [4] was above 1000 nM each time. Moreover, the Dmax in experiment [1] and in experiment [4] was below 50% in each case. The pIC50 in experiment [2] (setting [5]) is below 5.00; in experiment [3] (Homo sapiens, 22Rv1, 96 h) it was below 5.00.

Take `CC(=O)N1CCc2c(c(N3CCCc4cc5c(cc43)CCCC5)nn2C2CCN(C(=O)CN3CCc4cc5c(cc4C3)C(=O)N(C3CCC(=O)NC3=O)C5=O)CC2)C1` (centres unmarked) [CP-078, 6-(2-(4-(5-acetyl-3-(3,4,6,7,8,9-hexahydrobenzo[g]quinolin-1(2H)-yl)-4,5,6,7-tetrahydro-1H-pyrazolo[4,3-c]pyridin-1-yl)piperidin-1-yl)-2-oxoethyl)-2-(2,6-dioxopiperidin-3-yl)-5,6,7,8-tetrahydro-1H-pyrrolo[3,4-g]isoquinoline-1,3(2H)-dione]: the DC50 in experiment [1] and in experiment [4] was below 10 nM each time. For the same compound, the results for the Dmax in experiment [1] and in experiment [4] were above 70% and above 90%, respectively. For the same compound, the pIC50 in experiment [2] (setting [5]) was above 6.00; in experiment [3] (Homo sapiens, 22Rv1, 96 h), above 6.00.

Consider `CC(=O)N1CCc2c(c(-c3cccc4ccccc34)nn2C2CCN(C(=O)CN3Cc4cc5c(cc4C3)C(=O)N(C3CCC(=O)NC3=O)C5=O)CC2)C1` (centres unmarked) [CP-075, 6-(2-(4-(5-acetyl-3-(naphthalen-1-yl)-4,5,6,7-tetrahydro-1H-pyrazolo[4,3-c]pyridin-1-yl)piperidin-1-yl)-2-oxoethyl)-2-(2,6-dioxopiperidin-3-yl)-6,7-dihydropyrrolo[3,4-f]isoindole-1,3(2H,5H)-dione], for which the DC50 in experiment [1] and in experiment [4] was below 10 nM each time. In addition, the Dmax in experiment [1] and in experiment [4] was above 90% in each case. For the same compound, the pIC50 in experiment [2] (setting [5]) was above 6.00; in experiment [3] (Homo sapiens, 22Rv1, 96 h), above 6.00.

`Cc1noc(C)c1-c1ccc2c(c1)nc([C@@H]1CCCC(=O)N1c1ccc(F)c(F)c1)n2C1CCN(C(=O)CN2CCc3cc4c(cc3CC2)C(=O)N(C2CCC(=O)NC2=O)C4=O)CC1` (stereo partly drawn) [CP-064, 7-(2-(4-(2-((S)-1-(3,4-difluorophenyl)-6-oxopiperidin-2-yl)-5-(3,5-dimethylisoxazol-4-yl)-1H-benzo[d]imidazol-1-yl)piperidin-1-yl)-2-oxoethyl)-2-(2,6-dioxopiperidin-3-yl)-6,7,8,9-tetrahydroazepino[4,5-f]isoindole-1,3(2H,5H)-dione]: the DC50 in experiment [1] and in experiment [4] was above 1000 nM in each case. In addition, the Dmax in experiment [1] and in experiment [4] was below 50% throughout. Besides, the pIC50 in experiment [2] (setting [5]) was below 5.00; in experiment [3] (Homo sapiens, 22Rv1, 96 h), below 5.00.

In the case of `CC(=O)N1Cc2c(N3CCCc4cc(-c5ccnn5C)c(C(F)F)cc43)nn(C3CCN(C(=O)CN4Cc5cc6c(cc5C4)C(=O)N(C4CCC(=O)NC4=O)C6=O)CC3)c2C(C)(C)C1` (centres unmarked) [CP-085, 6-(2-(4-(5-acetyl-3-(7-(difluoromethyl)-6-(1-methyl-1H-pyrazol-5-yl)-3,4-dihydroquinolin-1(2H)-yl)-7,7-dimethyl-4,5,6,7-tetrahydro-1H-pyrazolo[4,3-c]pyridin-1-yl)piperidin-1-yl)-2-oxoethyl)-2-(2,6-dioxopiperidin-3-yl)-6,7-dihydropyrrolo[3,4-f]isoindole-1,3(2H,5H)-dione], the DC50 in experiment [1] was above 1000 nM; in experiment [4] it was below 10 nM. For the same compound, the Dmax in experiment [1] was below 50%; in experiment [4] it was above 70%. For the same compound, the pIC50 in experiment [2] (setting [5]) was below 5.00; in experiment [3] (Homo sapiens, 22Rv1, 96 h), below 5.00.

On to `CC(=O)N1CCc2c(c(N3CCCc4cc5c(cc43)CCCC5)nn2C2CCN(C(=O)CN3Cc4cc5c(cc4C3)C(=O)N(C3CCC(=O)NC3=O)C5=O)CC2)C1` (centres unmarked) [CP-077, 6-(2-(4-(5-acetyl-3-(3,4,6,7,8,9-hexahydrobenzo[g]quinolin-1(2H)-yl)-4,5,6,7-tetrahydro-1H-pyrazolo[4,3-c]pyridin-1-yl)piperidin-1-yl)-2-oxoethyl)-2-(2,6-dioxopiperidin-3-yl)-6,7-dihydropyrrolo[3,4-f]isoindole-1,3(2H,5H)-dione], for which the DC50 in experiment [1] and in experiment [4] was below 10 nM throughout. For the same compound, the Dmax in experiment [1] and in experiment [4] was above 90% in each case. The pIC50 in experiment [2] (setting [5]) is above 6.00; in experiment [3] (Homo sapiens, 22Rv1, 96 h), above 6.00.

For the compound `CC(=O)N1CCc2c(c(N3CCCc4cc(-c5cnn(CCCCN6CCc7cc8c(cc7C6)C(=O)N(C6CCC(=O)NC6=O)C8=O)c5)c(C(F)F)cc43)nn2C2CCOCC2)C1` (centres unmarked) [CP-070, 6-(4-(4-(1-(5-acetyl-1-(tetrahydro-2H-pyran-4-yl)-4,5,6,7-tetrahydro-1H-pyrazolo[4,3-c]pyridin-3-yl)-7-(difluoromethyl)-1,2,3,4-tetrahydroquinolin-6-yl)-1H-pyrazol-1-yl)butyl)-2-(2,6-dioxopiperidin-3-yl)-5,6,7,8-tetrahydro-1H-pyrrolo[3,4-g]isoquinoline-1,3(2H)-dione], the negative-log IC50 (pIC50) in experiment [2] (setting [5]) is above 7.00. Moreover, in experiment [3] (Homo sapiens, 22Rv1, 96 h), the pIC50 is above 6.00. Also, in experiment [4], the Dmax is above 70% and the DC50 is below 10 nM.

Take `CC(=O)N1CCc2c(c(N3CCCc4cc(-c5cnn(C)c5)c(C(F)F)cc43)nn2C2CCN(CC(=O)N3Cc4cc5c(cc4C3)C(=O)N(C3CCC(=O)NC3=O)C5=O)CC2)C1` (centres unmarked) [CP-006, 6-(2-(4-(5-acetyl-3-(7-(difluoromethyl)-6-(1-methyl-1H-pyrazol-4-yl)-3,4-dihydroquinolin-1(2H)-yl)-4,5,6,7-tetrahydro-1H-pyrazolo[4,3-c]pyridin-1-yl)piperidin-1-yl)acetyl)-2-(2,6-dioxopiperidin-3-yl)-6,7-dihydropyrrolo[3,4-f]isoindole-1,3(2H,5H)-dione]: the pIC50 in experiment [2] (setting [5]) was above 6.00; in experiment [3] (Homo sapiens, 22Rv1, 96 h), above 5.00. For the same compound, in experiment [4], the Dmax is above 70%. In experiment [4], the DC50 is below 10 nM.

For the compound `CC(=O)N1CCc2c(c(N3CCCc4cc(-c5cnn(C)c5)c(C(F)F)cc43)nn2C[C@H]2CC[C@@H](N3CCc4cc5c(cc4C3)C(=O)N(C3CCC(=O)NC3=O)C5=O)CC2)C1` (relative stereo) [CP-042, 6-(4-((5-acetyl-3-(7-(difluoromethyl)-6-(1-methyl-1H-pyrazol-4-yl)-3,4-dihydroquinolin-1(2H)-yl)-4,5,6,7-tetrahydro-1H-pyrazolo[4,3-c]pyridin-1-yl)methyl)cyclohexyl)-2-(2,6-dioxopiperidin-3-yl)-5,6,7,8-tetrahydro-1H-pyrrolo[3,4-g]isoquinoline-1,3(2H)-dione], the pIC50 in experiment [2] (setting [5]) was above 7.00. Besides, in experiment [3] (Homo sapiens, 22Rv1, 96 h), the pIC50 is above 6.00. For the same compound, in experiment [4], the Dmax was above 90% and the 50% degradation concentration (DC50) was below 10 nM.

Take `CC(=O)N1CCc2c(c(N3CCCc4cc(-c5cnn(C)c5)c(C(F)F)cc43)nn2C2CCC(C(=O)N3Cc4cc5c(cc4C3)C(=O)N(C3CCC(=O)NC3=O)C5=O)CC2)C1` (centres unmarked) [CP-034, 6-(4-(5-acetyl-3-(7-(difluoromethyl)-6-(1-methyl-1H-pyrazol-4-yl)-3,4-dihydroquinolin-1(2H)-yl)-4,5,6,7-tetrahydro-1H-pyrazolo[4,3-c]pyridin-1-yl)cyclohexane-1-carbonyl)-2-(2,6-dioxopiperidin-3-yl)-6,7-dihydropyrrolo[3,4-f]isoindole-1,3(2H,5H)-dione]: the figures for the pIC50 in experiment [2] (HL60 cells) and in experiment [3] were above 7.00 and above 6.00, respectively. Also, in experiment [4], the “CBP Degradation (22Rv1, 5 h) DCmax” value is “+++ (>90% = +++)”. This compound also gave a DC50 in experiment [4] below 10 nM.

With `CC(=O)N1CCc2c(c(N3CCCc4ccc(C(F)F)cc43)nn2C2CCN(C(=O)CN3CCc4cc5c(cc4C3)C(=O)N(C3CCC(=O)NC3=O)C5=O)CC2)C1` (centres unmarked) [CP-009, 6-(2-(4-(5-acetyl-3-(7-(difluoromethyl)-3,4-dihydroquinolin-1(2H)-yl)-4,5,6,7-tetrahydro-1H-pyrazolo[4,3-c]pyridin-1-yl)piperidin-1-yl)-2-oxoethyl)-2-(2,6-dioxopiperidin-3-yl)-5,6,7,8-tetrahydro-1H-pyrrolo[3,4-g]isoquinoline-1,3(2H)-dione], the pIC50 in experiment [2] (setting [5]) was above 7.00. Further, the pIC50 in experiment [3] (Homo sapiens, 22Rv1, 96 h) was above 6.00. For the same compound, in experiment [4], the Dmax was above 90% and the DC50 was below 10 nM.
